Patent publication US20240172752A1, “7-OXA-3,4-DIAZABICYCLO[4.1.0]HEPT-4-EN-2-ONE COMPOUND AND HERBICIDE” (Nippon Soda Co., Ltd., priority 2021, published 2024)

What was measured:
Amaranthus blitum = assay: Soil treatment herbicidal test, weed killing rate, Amaranthus blitum; assay type: in vivo; settings: 672 h, 250 g per hectare, after 4 weeks, read-out: herbicidal activity (weed killing rate) with respect to Amaranthus blitum
Procedure: (§1) POA allylphenyl ether (4.1 parts by weight), POE-POP glycol (1 part by weight), POE sorbitan laurate (0.8 parts by weight), glycerin (2.6 parts by weight), dimethylformamide (65.9 parts by weight), N-methylpyrrolidone (5.1 parts by weight), cyclohexanone (15.4 parts by weight), and aromatic hydrocarbons (5.1 parts by weight) were mixed and dissolved to prepare an emulsion. The compound of the present invention (4 mg) was dissolved in this emulsion (100 μL) to prepare a test emulsion. POA means “polyoxyalkylene”, POE means “polyoxyethylene”, and POP means “polyoxypropylene”.
(§2) A 70 cm^2 pot was filled with soil, and seeds of Digitaria ciliaris, Setaria faberi, Abutilon theophrasti and Amaranthus blitum were sown into the surface layer which was covered lightly with soil. The next day, the above test emulsion was diluted so as to achieve a predetermined amount of active ingredient and sprayed on the soil surface with a small sprayer at a spray water volume of 2,860 L per hectare.
(§3) After 4 weeks, the above ground weights of weeds in the untreated and treated areas were measured for each weed, and the weed killing rate was calculated by the following calculation formula.
(§4) Weed killing rate (%)=[(above ground weight of weeds in untreated area)−(above ground weight of weeds in treated area)/(above ground weight of weeds in untreated area)]×100

Abutilon theophrasti = assay: Soil treatment herbicidal test, weed killing rate, Abutilon theophrasti; assay type: in vivo; settings: 672 h, 250 g per hectare, after 4 weeks, read-out: herbicidal activity (weed killing rate) with respect to Abutilon theophrasti
Procedure: as §1, §2, §3, §4

Row | SMILES | melting point [°C] | pest or weed control at 250 g/ha (Amaranthus blitum) [%] | pest or weed control at 250 g/ha (Abutilon theophrasti) [%]
1 | COC12OC1(c1ccc(C(F)(F)F)nc1S(C)(=O)=O)C=NN(C)C2=O (centres unmarked) [Compound A-1] |  | ≥ 80 | ≥ 80
2 | COC12OC1(c1ncc(Cl)cc1S(C)(=O)=O)C=NN(C)C2=O (centres unmarked) [Compound A-2] |  |  | ≥ 80
3 | COC12OC1(c1ccc(C(F)(F)F)nc1S(=O)(=O)N1CCOCC1)C=NN(C)C2=O (centres unmarked) [Compound A-4] |  | ≥ 80 | ≥ 80
4 | COCCOCc1nc(C(F)(F)F)ccc1C12C=NN(C)C(=O)C1(OC)O2 (centres unmarked) [Compound A-5] |  | ≥ 80 | ≥ 80
5 | COC12OC1(c1ncc(C(F)(F)F)cc1S(C)(=O)=O)C=NN(C)C2=O (centres unmarked) [Compound A-6] |  | ≥ 80 | ≥ 80
6 | COC12OC1(c1cc3cccnc3nc1C(F)(F)F)C=NN(C)C2=O (centres unmarked) [Compound A-7] | 203 to 210 | ≥ 80 | ≥ 80
7 | COC12OC1(c1cnc(C(F)(F)F)cc1S(C)(=O)=O)C=NN(C)C2=O (centres unmarked) [Compound A-8] |  | ≥ 80 | ≥ 80
8 | COC12OC1(c1cc3cccnc3c(Cl)c1C(F)(F)F)C=NN(C)C2=O (centres unmarked) [Compound A-9] | 238 to 239 |  | 
9 | COC12OC1(c1cc(C(F)(F)F)nn1CS(C)(=O)=O)C=NN(C)C2=O (centres unmarked) [Compound A-25] |  | ≥ 80 | ≥ 80

Second part, led by results:

Row | melting point [°C] | SMILES | pest or weed control at 250 g/ha (Amaranthus blitum) [%] | pest or weed control at 250 g/ha (Abutilon theophrasti) [%]
10 | 180 to 182 | COC12OC1(c1nn(C)c(=O)n(-c3ccc(F)cc3)c1=O)C=NN(C)C2=O (centres unmarked) [Compound A-10] |  | 
11 | 128 to 130 | COC12OC1(c1ccc(C(F)(F)F)n(C)c1=O)C=NN(C)C2=O (centres unmarked) [Compound A-11] |  | 
12 | 191 to 194 | COC12OC1(c1cn(C)c(=O)n(-c3ccc(F)cc3)c1=O)C=NN(C)C2=O (centres unmarked) [Compound A-17] |  | 
13 | 175 to 179 | COC12OC1(c1cc3ccncc3n(-c3ccc(F)cc3)c1=O)C=NN(C)C2=O (centres unmarked) [Compound A-18] |  | 
14 | 153 to 155 | COC12OC1(c1nn(C)c(=O)c(C)c1Cl)C=NN(C)C2=O (centres unmarked) [Compound A-23] |  | ≥ 80
15 | 171 to 172 | COC12OC1(c1ccc(C(F)(F)F)c3ncccc13)C=NN(C)C2=O (centres unmarked) [Compound A-24] | ≥ 80 | ≥ 80
